# Results: patent US9668995B2, “Treatment of motor fluctuations” (Motac Neuroscience Limited, priority 2000, dated 2017)
# System: MPTP-lesioned marmoset model of Parkinson's disease
# Assay: L-DOPA-induced fluctuations in locomotion in the MPTP-lesioned marmoset model of Parkinson's disease
# Type: in vivo, Marmosets (Callithrix jacchus)
# Conditions: 8-OH PIPAT 10 mg/kg co-administered with L-DOPA 8 mg/kg, locomotion assessed every 5 minutes over six hours
# Protocol: The effect of the 5-HT1a-receptor agonist 8-OH-PIPAT on L-DOPA-induced fluctuations in locomotion was assessed in the MPTP-lesioned marmoset model of Parkinson's disease.
# Marmosets (Callithrix jacchus) (bred in a closed colony at the University of Manchester) are rendered parkinsonian by subcutaneous injection of 2 mg kg^−1 MPTP for 5 consecutive days. The marmosets are allowed to recover for a minimum of 10 weeks until their parkinsonism becomes stable.
# A quantitative assessment of locomotor activity was assessed every 5 minutes for the duration of the experiment using computer-based activity monitors.
# Locomotion was measured over a six hour period using Benwick activity monitors. These locomotion monitors consist of a visually-shielded open-field arena, the perimeter of which is surrounded by a series of infra-red beams arranged at 5 cm intervals. PC-based software (Amlogger) assesses the number of beams broken. The number of beams broken as part of a locomotor movement (mobile counts) was measured.
# Marmosets were split into two groups. The first group received L-DOPA (8 mg/kg) and vehicle for 8-OH PIPAT only whereas the second group received L-DOPA (8 mg/kg) and 8-OH PIPAT (10 mg/kg).
structure (smiles),measurement,value
"CCCN(C/C=C/I)C1CCc2cccc(O)c2C1 (racemic) [8-OH-PIPAT, (RS)-trans-8-hydroxy-2-[N-n-propyl-N-(3′-iodo-2′-propenyl)amino]tetralin]","L-DOPA-stimulated 'on-time' (locomotor activity, mobile counts)",increase in L-DOPA-stimulated ‘on-time’
